Where two headings read alike, the source gives them in different places.
Columns and labels:
KAT6A Full length enzyme = KAT6A Full length enzyme (Homo sapiens (Human), UniProt Q92794); assay: KAT6A assay (SAMDI-MS acetylation of H3 1-21 peptide); format: biochemical; details: replicate number in parentheses
[1] = molecular target: KAT7+JADE1+EAF6+ING5 4 protein complex (Homo sapiens (Human), UniProt O95251); assay: KAT7 JADE1 assay (SAMDI-MS acetylation of H3 1-21 peptide); format: biochemical; details: replicate number in parentheses
[2] = Morrison equation fit, read-out: KAT6A Ki (nM) (replicate number)
[3] = Morrison equation fit, read-out: KAT7 JADE1 Ki (nM) (replicate number)
[4] = read-out: KAT6A Ki (nM) (replicate)
[5] = read-out: KAT7 JADE1 Ki (nM) (replicate)

Chain of KAT6A Full length enzyme (Q92794 other isoform, or with tags, fused parts or gaps): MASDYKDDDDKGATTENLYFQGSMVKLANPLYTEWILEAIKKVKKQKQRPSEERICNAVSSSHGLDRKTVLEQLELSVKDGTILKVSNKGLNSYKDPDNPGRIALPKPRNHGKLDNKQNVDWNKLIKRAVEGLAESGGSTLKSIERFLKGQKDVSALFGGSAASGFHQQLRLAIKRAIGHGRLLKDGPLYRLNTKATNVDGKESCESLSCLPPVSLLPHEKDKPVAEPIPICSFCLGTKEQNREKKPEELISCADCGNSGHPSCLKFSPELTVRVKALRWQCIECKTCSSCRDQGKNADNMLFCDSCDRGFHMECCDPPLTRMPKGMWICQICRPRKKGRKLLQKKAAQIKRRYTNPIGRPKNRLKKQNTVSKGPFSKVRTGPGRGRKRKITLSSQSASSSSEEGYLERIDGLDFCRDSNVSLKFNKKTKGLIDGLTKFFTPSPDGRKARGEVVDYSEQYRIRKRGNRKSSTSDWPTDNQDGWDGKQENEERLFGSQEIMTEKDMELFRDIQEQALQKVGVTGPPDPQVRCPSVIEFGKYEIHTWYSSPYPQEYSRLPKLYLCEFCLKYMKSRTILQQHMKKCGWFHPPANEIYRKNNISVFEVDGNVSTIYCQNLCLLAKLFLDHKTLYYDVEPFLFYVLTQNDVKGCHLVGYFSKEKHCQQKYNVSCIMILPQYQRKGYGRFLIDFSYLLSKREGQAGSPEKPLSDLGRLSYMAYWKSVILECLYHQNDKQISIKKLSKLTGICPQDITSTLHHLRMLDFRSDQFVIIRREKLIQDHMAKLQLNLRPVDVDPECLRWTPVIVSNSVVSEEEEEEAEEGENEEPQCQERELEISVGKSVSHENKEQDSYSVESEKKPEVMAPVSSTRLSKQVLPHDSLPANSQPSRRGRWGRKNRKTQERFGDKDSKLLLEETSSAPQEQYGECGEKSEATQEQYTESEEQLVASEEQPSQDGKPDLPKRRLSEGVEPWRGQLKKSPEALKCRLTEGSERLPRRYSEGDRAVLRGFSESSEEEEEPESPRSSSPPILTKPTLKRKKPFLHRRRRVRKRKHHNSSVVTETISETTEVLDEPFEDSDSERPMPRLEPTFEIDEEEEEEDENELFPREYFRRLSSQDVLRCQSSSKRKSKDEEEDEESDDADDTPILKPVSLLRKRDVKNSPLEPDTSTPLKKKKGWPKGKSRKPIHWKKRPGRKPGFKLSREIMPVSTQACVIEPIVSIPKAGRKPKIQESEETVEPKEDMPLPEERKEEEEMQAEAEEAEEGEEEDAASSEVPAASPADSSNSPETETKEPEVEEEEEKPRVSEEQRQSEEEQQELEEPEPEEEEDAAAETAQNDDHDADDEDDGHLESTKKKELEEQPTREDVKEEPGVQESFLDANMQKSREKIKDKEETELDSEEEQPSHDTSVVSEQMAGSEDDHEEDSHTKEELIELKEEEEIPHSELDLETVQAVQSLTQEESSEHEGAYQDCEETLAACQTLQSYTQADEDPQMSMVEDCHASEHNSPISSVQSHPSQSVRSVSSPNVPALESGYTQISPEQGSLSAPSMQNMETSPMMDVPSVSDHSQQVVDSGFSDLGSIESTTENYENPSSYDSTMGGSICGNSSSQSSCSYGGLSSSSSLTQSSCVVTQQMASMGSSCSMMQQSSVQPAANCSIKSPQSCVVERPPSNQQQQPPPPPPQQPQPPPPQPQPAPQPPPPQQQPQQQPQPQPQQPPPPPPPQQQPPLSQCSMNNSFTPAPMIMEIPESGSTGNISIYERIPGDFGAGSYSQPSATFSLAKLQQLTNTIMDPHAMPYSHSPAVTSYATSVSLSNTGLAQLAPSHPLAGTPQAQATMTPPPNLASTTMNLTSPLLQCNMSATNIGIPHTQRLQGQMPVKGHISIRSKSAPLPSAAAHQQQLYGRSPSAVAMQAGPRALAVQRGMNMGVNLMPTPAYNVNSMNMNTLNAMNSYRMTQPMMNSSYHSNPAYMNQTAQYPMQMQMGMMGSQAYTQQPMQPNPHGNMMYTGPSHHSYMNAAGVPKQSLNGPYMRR

Row | Structure (SMILES) | Ki (KAT6A Full length enzyme; [2]) [nM] | Ki [1, 3] [nM] | Ki (KAT6A Full length enzyme; [4]) [nM] | Ki [1, 5] [nM]
1 | COc1cc2c(NS(=O)(=O)c3c(OC)cc(CN4CCC[C@H](F)C4)cc3OC)noc2cc1Nc1cc(C2CC2)n[nH]1 (single isomer, unassigned) [Example 197, N-{6-[(3-cyclopropyl-1H-pyrazol-5-yl)amino]-5-methoxy-1,2-benzoxazol-3-yl}-4-[(3-fluoropiperidin-1-yl)methyl]-2,6-dimethoxybenzene-1-sulfonamide] | 1.3 | 7.3 |  | 
2 | COc1cc2c(NS(=O)(=O)c3c(OC)cc(CN4CCC[C@@H](F)C4)cc3OC)noc2cc1Nc1cc(C2CC2)n[nH]1 (single isomer, unassigned) [Example 198, N-{6-[(3-cyclopropyl-1H-pyrazol-5-yl)amino]-5-methoxy-1,2-benzoxazol-3-yl}-4-[(3-fluoropiperidin-1-yl)methyl]-2,6-dimethoxybenzene-1-sulfonamide] | 1.1 | 5.9 |  | 
3 | COc1cc2c(NS(=O)(=O)c3c(OC)cc(C(C)N4CCOCC4)cc3OC)noc2cc1Nc1cc(C2CC2)n[nH]1 (single isomer, unassigned) [Example 208, N-{6-[(3-cyclopropyl-1H-pyrazol-5-yl)amino]-5-methoxy-1,2-benzoxazol-3-yl}-2,6-dimethoxy-4-[1-(morpholin-4-yl)ethyl]benzene-1-sulfonamide] | 2.4 | 7.6 |  | 
4 | COc1cc2c(NS(=O)(=O)c3c(OC)cc(C(C)N4CC(F)C4)cc3OC)noc2cc1Nc1cc(C2CC2)[nH]n1 (single isomer, unassigned) [Example 210, N-{6-[(5-cyclopropyl-1H-pyrazol-3-yl)amino]-5-methoxy-1,2-benzoxazol-3-yl}-4-[1-(3-fluoroazetidin-1-yl)ethyl]-2,6-dimethoxybenzene-1-sulfonamide] | 1.2 | 6.6 |  | 
5 | COc1cc2c(NS(=O)(=O)c3c(OC)cc(C4CN(C)CC(F)(F)C4)cc3OC)noc2cc1Nc1cc(C2CC2)[nH]n1 (single isomer, unassigned) [Example 228, N-{6-[(5-cyclopropyl-1 H-pyrazol-3-yl)amino]-5-methoxy-1,2-benzoxazol-3-yl}-4-(5,5-difluoro-1-methylpiperidin-3-yl)-2,6-dimethoxybenzene-1-sulfonamide] | 0.8 | 6.2 |  | 
6 | COc1cc2c(NS(=O)(=O)c3c(OC)cc(C4CN(C)CC(F)(F)C4)cc3OC)noc2cc1Nc1cc(C2CC2)[nH]n1 (single isomer, unassigned) [Example 229, N-{6-[(5-cyclopropyl-1 H-pyrazol-3-yl)amino]-5-methoxy-1,2-benzoxazol-3-yl}-4-(5,5-difluoro-1-methylpiperidin-3-yl)-2,6-dimethoxybenzene-1-sulfonamide] | 1.7 | 6.4 |  | 
7 | CCc1cc(Nc2cc3onc(NS(=O)(=O)c4c(OC)cc(C5COCCO5)cc4OC)c3cc2OC)[nH]n1 (single isomer, unassigned) [Example 239, 4-(1,4-dioxan-2-yl)-N-{6-[(3-ethyl-1H-pyrazol-5-yl)amino]-5-methoxy-1,2-benzoxazol-3-yl}-2,6-dimethoxybenzene-1-sulfonamide] | 2.1 | 14.1 |  | 
8 | CCc1cc(Nc2cc3onc(NS(=O)(=O)c4c(OC)cc(C5COCCO5)cc4OC)c3cc2OC)[nH]n1 (single isomer, unassigned) [Example 240, 4-(1,4-dioxan-2-yl)-N-{6-[(3-ethyl-1H-pyrazol-5-yl)amino]-5-methoxy-1,2-benzoxazol-3-yl}-2,6-dimethoxybenzene-1-sulfonamide] | 1.2 | 7.5 |  | 
9 | COc1cc2c(NS(=O)(=O)c3c(OC)cc(-c4ccn(C)n4)cc3OC)noc2cc1Nc1cc(C2CC2C)n[nH]1 (single isomer, unassigned) [Example 241, 2,6-dimethoxy-N-(5-methoxy-6-{[3-(2-methylcyclopropyl)-1H-pyrazol-5-yl]amino}-1,2-benzoxazol-3-yl)-4-(1-methyl-1H-pyrazol-3-yl)benzene-1-sulfonamide] | 2.6 | 75.3 |  | 
10 | COc1cc2c(NS(=O)(=O)c3c(OC)cc(N4C(=O)CCC4C)cc3OC)noc2cc1Nc1cc(C2CC2)n[nH]1 (single isomer, unassigned) [Example 244, N-{6-[(3-cyclopropyl-1 H-pyrazol-5-yl)amino]-5-methoxy-1,2-benzoxazol-3-yl}-2,6-dimethoxy-4-(2-methyl-5-oxopyrrolidin-1-yl)benzene-1-sulfonamide] | 0.2 | 1.3 |  | 
11 | COc1cc2c(NS(=O)(=O)c3c(OC)cc(N4C(=O)CCC4C)cc3OC)noc2cc1Nc1cc(C2CC2)n[nH]1 (single isomer, unassigned) [Example 245, N-{6-[(3-cyclopropyl-1 H-pyrazol-5-yl)amino]-5-methoxy-1,2-benzoxazol-3-yl}-2,6-dimethoxy-4-(2-methyl-5-oxopyrrolidin-1-yl)benzene-1-sulfonamide] | 0.7 | 3.6 |  | 
12 | COc1cc2c(NS(=O)(=O)c3c(OC)cc(C4CCOC4)cc3OC)noc2cc1Nc1cc(C2CC2)n[nH]1 (single isomer, unassigned) [Example 266, N-{6-[(3-cyclopropyl-1H-pyrazol-5-yl)amino]-5-methoxy-1,2-benzoxazol-3-yl}-2,6-dimethoxy-4-(oxolan-3-yl)benzene-1-sulfonamide] |  |  | 1.6 | 13.6
13 | COc1cc2c(NS(=O)(=O)c3c(OC)cc(C4CCOC4)cc3OC)noc2cc1Nc1cc(C2CC2)n[nH]1 (single isomer, unassigned) [Example 267, N-{6-[(3-cyclopropyl-1H-pyrazol-5-yl)amino]-5-methoxy-1,2-benzoxazol-3-yl}-2,6-dimethoxy-4-(oxolan-3-yl)benzene-1-sulfonamide] |  |  | 1.3 | 9.3
14 | COc1cc2c(NS(=O)(=O)c3c(OC)cc(C4CCCOC4)cc3OC)noc2cc1Nc1cc(C2CC2)n[nH]1 (single isomer, unassigned) [Example 268, N-{6-[(3-cyclopropyl-1 H-pyrazol-5-yl)amino]-5-methoxy-1,2-benzoxazol-3-yl}-2,6-dimethoxy-4-(oxan-3-yl)benzene-1-sulfonamide] |  |  | 1.2 | 8.8
15 | COc1cc2c(NS(=O)(=O)c3c(OC)cc(C4CCCOC4)cc3OC)noc2cc1Nc1cc(C2CC2)n[nH]1 (single isomer, unassigned) [Example 269, N-{6-[(3-cyclopropyl-1 H-pyrazol-5-yl)amino]-5-methoxy-1,2-benzoxazol-3-yl}-2,6-dimethoxy-4-(oxan-3-yl)benzene-1-sulfonamide] |  |  | 0.8 | 6.1
16 | COCC(OC)c1cc(OC)c(S(=O)(=O)Nc2noc3cc(Nc4cc(C5CC5)[nH]n4)c(OC)cc23)c(OC)c1 (single isomer, unassigned) [Example 274, N-{6-[(5-cyclopropyl-1 H-pyrazol-3-yl)amino]-5-methoxy-1,2-benzoxazol-3-yl}-4-(1,2-dimethoxyethyl)-2,6-dimethoxybenzene-1-sulfonamide] |  |  | 2.8 | 6.9
17 | COCC(OC)c1cc(OC)c(S(=O)(=O)Nc2noc3cc(Nc4cc(C5CC5)[nH]n4)c(OC)cc23)c(OC)c1 (single isomer, unassigned) [Example 275, N-{6-[(5-cyclopropyl-1H-pyrazol-3-yl)amino]-5-methoxy-1,2-benzoxazol-3-yl}-4-(1,2-dimethoxyethyl)-2,6-dimethoxybenzene-1-sulfonamide] |  |  | 1.1 | 9.7
18 | COc1cccc(OC)c1S(=O)(=O)Nc1noc2cc(NC3COC3)cc(OC)c12 [Example 11, 2,6-dimethoxy-N-{4-methoxy-6-[(oxetan-3-yl)amino]-1,2-benzoxazol-3-yl}benzene-1-sulfonamide] | 31.1 | > 2340 |  | 
19 | COc1cccc(OC)c1S(=O)(=O)Nc1noc2cc(NC3CCCC3)cc(OC)c12 [Example 12, N-[6-(cyclopentylamino)-4-methoxy-1,2-benzoxazol-3-yl]-2,6-dimethoxybenzene-1-sulfonamide] | 25.6 | > 2340 |  | 
20 | COc1cccc(OC)c1S(=O)(=O)Nc1noc2cc(N[C@@H]3CCOC3)cc(OC)c12 [Example 13, 2,6-dimethoxy-N-(4-methoxy-6-{[(3R)-oxolan-3-yl]amino}-1,2-benzoxazol-3-yl)benzene-1-sulfonamide] | 25.5 | > 2340 |  | 
21 | COc1cccc(OC)c1S(=O)(=O)Nc1noc2cc(Nc3ncco3)cc(OC)c12 [Example 17, 2,6-dimethoxy-N-{4-methoxy-6-[(1,3-oxazol-2-yl)amino]-1,2-benzoxazol-3-yl}benzene-1-sulfonamide] | 1.9 | 1230 |  | 
22 | COc1cc2c(NS(=O)(=O)c3ccccc3)noc2cc1Nc1ccn(C)n1 [Example 21, N-{5-methoxy-6-[(1-methyl-1H-pyrazol-3-yl)amino]-1,2-benzoxazol-3-yl}benzenesulfonamide] | 7.9 | 625 |  | 
23 | COc1cc2c(NS(=O)(=O)c3c(OC)cccc3OC)noc2cc1Nc1noc(C)n1 [Example 37, 2,6-dimethoxy-N-{5-methoxy-6-[(5-methyl-1,2,4-oxadiazol-3-yl)amino]-1,2-benzoxazol-3-yl}benzene-1-sulfonamide] | 15.9 | > 2340 |  | 
24 | COc1cc2c(NS(=O)(=O)c3c(OC)cccc3OC)noc2cc1Nc1cc(C)nn1C [Example 38, N-{6-[(1,3-dimethyl-1H-pyrazol-5-yl)amino]-5-methoxy-1,2-benzoxazol-3-yl}-2,6-dimethoxybenzene-1-sulfonamide] | 60.4 | > 12500 |  | 
25 | CCc1nc(Nc2cc3onc(NS(=O)(=O)c4c(OC)cccc4OC)c3cc2OC)no1 [Example 43, N-{6-[(5-ethyl-1,2,4-oxadiazol-3-yl)amino]-5-methoxy-1,2-benzoxazol-3-yl}-2,6-dimethoxybenzene-1-sulfonamide] | 55.5 | > 2340 |  | 

Source: patent US20250122183A1 (Pfizer Inc., priority 2023, published 2025)
